Assays:
HIV-1 protease = HIV-1 protease (Human immunodeficiency virus type 1 group M subtype B, UniProt P04585); experiment: HIV-1 protease inhibition, spectrofluorometric assay; format: biochemical; conditions: for Ki: HIV-1 protease
HIVLAI = experiment: Cell-based antiviral assay in MT-2 human-T-lymphoid cells exposed to HIVLAI; set-up: species or system HIV-1; conditions: for antiviral activity (in words): MT-2 cells exposed to HIVLAI
[1] = at least 5 data points, standard error less than 7%

C=CCC1OC(C)CC1OC(=O)NC(Cc1ccccc1)C(O)CN(CC(C)C)S(=O)(=O)c1ccc(OC)cc1 [4a, (2S,3S,5R)-2-allyl-5-methyltetrahydrofuran-3-yl.((2S,3R)-3-hydroxy-4-((N-isobutyl-4-methoxyphenyl)sulfonamido)-1-phenylbutan-2-yl)carbamate]
Ki (HIV-1 protease; [1]): 400 pM
antiviral activity (in words) (HIVLAI): did not exhibit any appreciable antiviral activity

COC[C@@H]1O[C@H](C)C[C@@H]1OC(=O)N[C@@H](Cc1ccccc1)[C@H](O)CN(CC(C)C)S(=O)(=O)c1ccc(N)cc1 [4d, (2S,3S,5R)-2-(methoxymethyl)-5-methyltetrahydrofuran-3-yl((2S,3R)-4-((4-amino-N-isobutylphenyl)sulfonamido)-3-hydroxy-1-phenylbutan-2-yl)carbamate]
fold reduction of protease inhibitory activity over compound 4c (HIV-1 protease; relative to compound 4c): over 300 fold

COC[C@H]1O[C@@H](C)C[C@H]1OC(=O)N[C@@H](Cc1ccccc1)[C@H](O)CN(CC(C)C)S(=O)(=O)c1ccc(OC)cc1 [4e, (2R,3R,5S)-2-(methoxymethyl)-5-methyltetrahydrofuran-3-yl.((2S,3R)-3-hydroxy-4-((N-isobutyl-4-methoxyphenyl)sulfonamido)-1-phenylbutan-2-yl)carbamate]
fold reduction of protease inhibitory activity over compound 4c (HIV-1 protease; relative to compound 4c): ~4 fold

COC[C@H]1O[C@H](C)C[C@@H]1OC(=O)N[C@@H](Cc1ccccc1)[C@H](O)CN(CC(C)C)S(=O)(=O)c1ccc(OC)cc1 [4h, (2R,3S,5R)-2-(methoxymethyl)-5-methyltetrahydrofuran-3-yl((2S,3R)-3-hydroxy-4-((N-isobutyl-4-methoxyphenyl)sulfonamido)-1-phenylbutan-2-yl)carbamate]
Ki (HIV-1 protease; value printed in pM): 49 pM
fold improvement of enzyme affinity compared to compound 4c (HIV-1 protease; relative to compound 4c): over 5 fold

COc1ccc(S(=O)(=O)N(CC(C)C)C[C@@H](O)[C@H](Cc2ccccc2)NC(=O)O[C@H]2C[C@@H](C)O[C@H]2[C@@H]2CCCO2)cc1 [4k, (2S,2’S,3S,5R)-5-methyloctahydro-[2,2’-bifuran]-3-yl((2S,3R)-3-hydroxy-4-((N-isobutyl-4-methoxyphenyl)sulfonamido)-1-phenylbutan-2-yl)carbamate]
Ki (HIV-1 protease; [1]): 310 pM
antiviral activity (in words) (HIVLAI): did not exhibit any appreciable antiviral activity

COc1ccc(S(=O)(=O)N(CC(C)C)C[C@@H](O)[C@H](Cc2ccccc2)NC(=O)O[C@H]2C[C@@H](C)O[C@H]2[C@H]2CCCO2)cc1 [4l, (2S,2’R,3S,5R)-5-methyloctahydro-[2,2’-bifuran]-3-yl((2S,3R)-3-hydroxy-4-((N-isobutyl-4-methoxyphenyl)sulfonamido)-1-phenylbutan-2-yl)carbamate]
Ki (HIV-1 protease; value printed in pM): 44 pM
antiviral activity (in words) (HIVLAI): did not exhibit any appreciable antiviral activity

CC(C)CN(C[C@@H](O)[C@H](Cc1ccccc1)NC(=O)O[C@H]1CO[C@H]2OCC[C@H]21)S(=O)(=O)c1ccc(N)cc1 [Darunavir, darunavir, reference compound]
EC50 (HIVLAI; Human immunodeficiency virus 1, MT2): 1600 pM

— PMC11957373 (Organic & biomolecular chemistry, 2024)
